Experimental findings from publication PMC4140855, “Production of an Attenuated Phenol-Soluble Modulin Variant Unique to the MRSA Clonal Complex 30 Increases Severity of Bloodstream Infection” (PLoS Pathogens, 2014) are described below.

Test [1] concerns kidneys (hematogenous seeding). Nature of the test: Mouse bacteremia (renal abscess) model. The class given is in vivo. The following applies: expressed in MRSA252 and 22030, versus isogenic strains expressing non-CC30 PSMα3. The procedure: (A) The MRSA252 strain (252, expressing PSMα3N22Y) was compared to a strain (252*) in which the psmα3 gene was changed to express non-CC30 PSMα3 in a mouse model of blood infection. Hematogenous seeding into the kidneys was measured 4 days after infecting mice via the tail vein with 1×10^7 CFU. Results from kidneys with considerable bacterial numbers (>10^3 CFU) are shown in the graph; the number of kidneys with lower or no bacteria is shown at the bottom. Analysis of significance was performed with the numbers obtained from all kidneys; *, p<0.05. Number of mice used per strain: 10. Two counts per analyzed kidney were performed. (B) Experiment as in (A) with strain 22030 expressing PSMα3N22Y and the isogenic 22030* strain expressing PSMα3. Number of mice used per strain: 20; two counts per analyzed kidney are included; inoculum: 1×10^6. *, p<0.05. (C, D) Tubulointerstitial nephritis with large colonies of bacteria (arrows) in kidneys infected with strain 252, magnification 100× (C) and 200× (D). (E) Absence of signs of infection in kidneys infected with strain 252* (magnification 100×).
For the renal abscess model, S. aureus strains were inoculated from a pre-culture and grown to mid-exponential growth phase (∼2 h), harvested, washed, and diluted with sterile PBS. […]

In test [2] the test system is abscess or lesion. As to the kind of experiment: Mouse model of skin infection (abscess sizes). The class given is in vivo. Conditions: Crl∶SKH1-hrBR mice, subcutaneous, 14 d; expressed in strains MRSA252 and 22030. The procedure: The mouse skin infection model was performed as described. Briefly, six to eight week-old female Crl∶SKH1-hrBR hairless mice (Charles River Laboratories) were injected subcutaneously with ∼4×10^7 CFU of S. aureus strains 252 or 252*, or ∼5×10^6 CFU of S. aureus strains 22030 or 22030* in 50 µl of PBS in the left flank of the mouse. The length (L) and width (W) of the abscess or lesion caused by the bacterial infection was measured with an electronic caliper daily for 14 d post infection and calculated using the formula L×W. Typically, strain MRSA252 caused closed abscesses and strain 22030 open lesions. All animals were euthanized after completion of the entire procedure. All mouse experiments were performed blinded at the animal care facility of the NIAID, Building 33, in compliance with the guidelines of the NIAID/NIH Institutional Animal Care and Use Committee.
Supplementary file ppat.1004298.s002.tif: Figure S2 Mouse model of skin infection. […] The length (L) and width (W) of the abscess or lesion caused by the bacterial infection was measured with an electronic caliper daily for 14 d post infection and calculated using the formula L×W. Typically, strain MRSA 252 caused closed abscesses and strain 22030 open lesions. […]

The test system of test [3] is human neutrophils. As to the kind of experiment: Chemotaxis of human neutrophils (transwell migration). Conditions: synthetic peptides, all tested concentrations, three donors, quadruplicate, compared to PSMα3N22Y. In kind it is cell-based. Here is the method: Figure 3 PSMα3N22Y has decreased chemotactic activity toward human neutrophils. (A) Chemotaxis of human neutrophils (neutrophil migration) was measured using a transwell system with synthetic peptides at the indicated concentrations. Neutrophils were from three donors and the measurements were performed in quadruplicate. **, p<0.01; ****, p<0.0001. (B) Chemotaxis of human neutrophils tested with culture filtrates (diluted 1∶100) of strains MRSA252 (252, expressing PSMα3N22Y) and 252* (MRSA252 altered to express PSMα3); ****, p<0.0001. Data are from two donors with triplicate measurements. […]
Human neutrophils were isolated from venous blood of healthy donors as described, [39]. Neutrophil chemotaxis and Ca^2+ flux were determined as previously described, [24]. […] Chemotaxis of neutrophils was determined using a transwell system (Costar) with analysis of neutrophil migration using fluorescence labeling. Calcium fluxes were monitored as a surrogate marker for chemotaxis since it can be measured more robustly and accurately than chemotaxis. For measurement of Ca^2+ fluxes, 5×10^6 neutrophils/ml were labeled with a fluorescent dye and analyzed with a FACScalibur (Becton Dickinson) as described. […] Measurements of 2,000 events were performed and Ca^2+ flux was expressed as relative fluorescence corrected for buffer controls. […]

In the case of `CSCC[C@H](NC=O)C(=O)N[C@@H](CCC(=O)O)C(=O)N[C@@H](Cc1ccccc1)C(=O)N[C@H](C(=O)N[C@@H](C)C(=O)N[C@@H](CCCCN)C(=O)N[C@@H](CC(C)C)C(=O)N[C@@H](Cc1ccccc1)C(=O)N[C@@H](CCCCN)C(=O)N[C@@H](Cc1ccccc1)C(=O)N[C@@H](Cc1ccccc1)C(=O)N[C@@H](CCCCN)C(=O)N[C@@H](CC(=O)O)C(=O)N[C@@H](CC(C)C)C(=O)N[C@@H](CC(C)C)C(=O)NCC(=O)N[C@@H](CCCCN)C(=O)N[C@@H](Cc1ccccc1)C(=O)N[C@@H](CC(C)C)C(=O)NCC(=O)N[C@@H](CC(N)=O)C(=O)N[C@@H](Cc1ccc(O)cc1)C(=O)O)C(C)C` [PSMα3N22Y], the “Capacity to cause sepsis and subsequent complications” value in test [1] was “increased capacity to cause sepsis and subsequent complications”. The “Virulence in skin infections as measured by abscess sizes” value in test [2] is listed as “did not cause increased virulence in skin infections”. Take `CSCC[C@H](NC=O)C(=O)N[C@@H](CCC(=O)O)C(=O)N[C@@H](Cc1ccccc1)C(=O)N[C@H](C(=O)N[C@@H](C)C(=O)N[C@@H](CCCCN)C(=O)N[C@@H](CC(C)C)C(=O)N[C@@H](Cc1ccccc1)C(=O)N[C@@H](CCCCN)C(=O)N[C@@H](Cc1ccccc1)C(=O)N[C@@H](Cc1ccccc1)C(=O)N[C@@H](CCCCN)C(=O)N[C@@H](CC(=O)O)C(=O)N[C@@H](CC(C)C)C(=O)N[C@@H](CC(C)C)C(=O)NCC(=O)N[C@@H](CCCCN)C(=O)N[C@@H](Cc1ccccc1)C(=O)N[C@@H](CC(C)C)C(=O)NCC(=O)N[C@@H](CC(N)=O)C(=O)N[C@@H](CC(N)=O)C(=O)O)C(C)C` [PSMα3]: the “Capacity to cause neutrophil chemotaxis” value in test [3] is given as “about twice higher than that caused by PSMα3N22Y at all tested concentrations”.
